Assay results from US20240059741A1, “COMPOSITION FOR PREVENTION OR TREATMENT OF SARS-COV-2 INFECTION” (priority 2020, published 2024).

Legend:
proteinaseK = target: T1, proteinaseK (Parengyodontium album, UniProt P06873); assay: Peptide remaining degree after ProtK treatment (Coomassie staining); type: in vitro ADME; conditions: 5 ug/ml proteinaseK, 37° C., 10, 30 and 60 minutes, FIG. 7
T1 construct: purchased Bioshop
Experimental: 200 μL of 50 μM stock solution was prepared with a base buffer (10 mM Tris-base, 10 mM NaCl, pH 7.4) and supplemented with 5 μM CaCl2. For untreated TO samples, 30 μL were obtained from each sample. Thereafter, 5 ug/ml of proteinaseK (Bioshop) was added to a final concentration of the remaining stock. […] Protease inactivated samples were frozen at −20° C. before further use. The frozen sample was supplemented with 8 μL of sample loading buffer (4×NuPAGE; ThermoFisher Scientific), boiled for 10 minutes (50° C.), and centrifuged at 13,500 RPM for 10 minutes before mounting a gel [12% NuPAGE Bis-Tris (ThermoFisher Scientific)] with 1×Mes running buffer. The gel was treated at 200 V for 35 minutes and stained with Coomassie Brilliant Blue dye G-250 (Thermo Fisher Scientific). ImageJ software having a background subtractive function was used as a density meter. All samples were normalized to untreated samples (TO).

SARS-CoV-2 S1 [1] = test system: SARS-CoV-2 S1
SARS-CoV-2 S1 [2] = test system: SARS-CoV-2 S1; remark: listed apart in the source

T1 sequence (P06873 106-384, species assumed): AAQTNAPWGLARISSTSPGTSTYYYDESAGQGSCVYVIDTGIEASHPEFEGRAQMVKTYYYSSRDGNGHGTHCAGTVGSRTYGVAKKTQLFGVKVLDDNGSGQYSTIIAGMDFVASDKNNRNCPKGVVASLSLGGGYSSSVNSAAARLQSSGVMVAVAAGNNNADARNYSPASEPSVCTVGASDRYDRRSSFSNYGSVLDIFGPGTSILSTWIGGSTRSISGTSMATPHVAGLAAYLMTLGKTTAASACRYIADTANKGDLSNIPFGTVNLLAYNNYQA

CC[C@H](C)[C@H](N)C(=O)N[C@@H](CCC(=O)O)C(=O)N[C@@H](CCC(=O)O)C(=O)N[C@@H](CCC(N)=O)C(=O)N[C@@H](C)C(=O)N[C@@H](CCCCN)C(=O)N[C@H](C(=O)N[C@@H](Cc1ccccc1)C(=O)N[C@@H](CC(C)C)C(=O)N[C@@H](CC(=O)O)C(=O)N[C@@H](CCCCN)C(=O)N[C@@H](Cc1ccccc1)C(=O)N[C@@H](CC(N)=O)C(=O)N[C@@H](Cc1c[nH]cn1)C(=O)N[C@@H](CCC(=O)O)C(=O)N[C@@H](C)C(=O)N[C@@H](CCC(=O)O)C(=O)N[C@@H](CC(=O)O)C(=O)N[C@@H](CC(C)C)C(=O)N[C@@H](Cc1ccccc1)C(=O)N[C@@H](Cc1ccc(O)cc1)C(=O)N[C@@H](CCC(N)=O)C(=O)N[C@@H](CO)C(=O)N[C@@H](CO)C(=O)N[C@@H](CC(C)C)C(=O)N[C@@H](C)C(=O)N[C@@H](CO)C(=O)NCC(=O)N1CCC[C@H]1C(=O)NCC(=O)N[C@H]1CSSC[C@@H](C(=O)N[C@@H](CCCNC(=N)N)C(=O)N[C@H](C(=O)N[C@@H](CC(C)C)C(=O)O)[C@@H](C)CC)NC(=O)[C@H](CC(=O)O)NC(=O)CNC(=O)[C@H](CCCCN)NC(=O)CNC(=O)[C@H](CC(C)C)NC1=O)[C@@H](C)O [CSNP1]
peptide remaining degree after proteinase K treatment (proteinaseK): barely remained
ka (SARS-CoV-2 S1 [1]): 603.4 M⁻¹ s⁻¹
kd (SARS-CoV-2 S1 [2]): 0.0001878 s⁻¹
